Experimental findings from patent publication US20160060260A1, “BROMODOMAIN INHIBITORS FOR TREATING DISEASE” (Board of Regents, The University of Texas System, priority 2014, published 2016) are described below.

Molecules are shown by their SMILES. Where only a bound is given, the exact number is not on record here.

For orientation: IC50 means the concentration needed to halve the response being measured.

In this test the target is T1, Recombinant human His-tagged Trim24-PHD-bromodomain (Homo sapiens, UniProt O15164).
T1 construct: Recombinant human His-tagged Trim24-PHD-bromodomain (produced in-house); made in house
T1 sequence (O15164 824-1006 limits assumed): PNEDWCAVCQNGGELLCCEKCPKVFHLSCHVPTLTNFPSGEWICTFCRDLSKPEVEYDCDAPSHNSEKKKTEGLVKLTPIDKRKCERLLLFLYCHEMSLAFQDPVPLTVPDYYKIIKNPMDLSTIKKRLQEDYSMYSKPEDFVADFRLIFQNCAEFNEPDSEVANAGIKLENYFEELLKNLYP
Nature of the test: Trim24 AlphaScreen Assay. The class given is binding. The settings on record: 5 nM Trim24 protein, 15 nM biotinylated H3K23ac (1-33aa) peptide. As for the experimental part:
Recombinant human His-tagged Trim24-PHD-bromodomain (produced in-house), biotinylated H3K23ac (1-33aa) peptide (AnaSpec, Inc.), and test compound were added to a 384-well OptiPlate (Perkin Elmer) and incubated at room temperature for one hour. The assay buffer consisted of 50 mM Hepes, pH 7.5, 100 mM NaCl, and 0.12 mM Triton X-100.
Streptavidin donor beads and nickel chelate acceptor beads, both from a Perkin Elmer AlphaScreen Histidine Detection Kit, were then added to the Optiplate to a final concentration of 10 ug/mL each. Following a 2 hour incubation at room temperature, the microplate was read on an Envision Plate Reader (Perkin Elmer). Percent of control (POC) values were calculated from the following formula:
POC=[sample signal-average background signal]/[average maximum signal−average background signal]*100
The average maximum signal was obtained from wells containing all assay components except test compound. The average background signal pertained to wells with all assay components except Trim24 and test compound. IC50 values were calculated using a four-parameter logistic curve fit.
As to `Cn1cnc(S(=O)(=O)Nc2cc3c(cc2Oc2cccc(OCc4cccnc4)c2)n(C)c(=O)n3C)c1` [Example 39, N-(1,3-dimethyl-2-oxo-6-(3-(pyridin-3-ylmethoxy)phenoxy)-2,3-dihydro-1H-benzo[d]imidazol-5-yl)-1-methyl-1H-imidazole-4-sulfonamide], the IC50 lay in the range of 100 to 1000 nM.

In the case of `CCCOc1cc(OCCCO)cc(Oc2cc3c(cc2NS(=O)(=O)c2cn(C)c(C)n2)n(C)c(=O)n3C)c1` [Example 98, N-(6-(3-(3-hydroxypropoxy)-5-propoxyphenoxy)-1,3-dimethyl-2-oxo-2,3-dihydro-1H-benzo[d]imidazol-5-yl)-1,2-dimethyl-1H-imidazole-4-sulfonamide], the IC50 was 10 to 100 nM.

With `COc1ccc(S(=O)(=O)Nc2cc3c(cc2Oc2cccc(OCc4ccc(Cl)nc4)c2)n(C)c(=O)n3C)cc1OC` [Example 20, N-(6-(3-((6-chloropyridin-3-yl)methoxy)phenoxy)-1,3-dimethyl-2-oxo-2,3-dihydro-1H-benzo[d]imidazol-5-yl)-3,4-dimethoxybenzenesulfonamide], the IC50 is over 1000 nM.

Consider `CCCOc1cccc(Oc2cc3c(cc2NS(=O)(=O)c2ccc(OC)c(NC(C)=O)c2)n(C)c(=O)n3C)c1` [Example 174, N-(5-(N-(1,3-dimethyl-2-oxo-6-(3-propoxyphenoxy)-2,3-dihydro-1H-benzo[d]imidazol-5-yl)sulfamoyl)-methoxyphenyl)acetamide], for which the IC50 lay within 10 to 100 nM.

For `CCCOc1cc(OCCCOC)cc(Oc2cc3c(cc2NS(=O)(=O)c2cn(C)cn2)n(C)c(=O)n3C)c1` [Example 152, N-(6-(3-(3-methoxypropoxy)-5-propoxyphenoxy)-1,3-dimethyl-2-oxo-2,3-dihydro-1H-benzo[d]imidazol-5-yl)-1-methyl-1H-imidazole-4-sulfonamide], the half-inhibitory concentration (IC50) is 10 to 100 nM.

Take `CCCOc1cc(OCCCOC)cc(Oc2cc3c(cc2NS(=O)(=O)c2ccc(N(C)C)cc2)n(C)c(=O)n3C)c1` [Example 177, 4-(dimethylamino)-N-(6-(3-(3-methoxypropoxy)-5-propoxyphenoxy)-1,3-dimethyl-2-oxo-2,3-dihydro-benzo[d]imidazol-5-yl)benzenesulfonamide]: the IC50 was 100 to 1000 nM.

As to `CCCOc1cc(OCCCCN(C)C)cc(Oc2cc3c(cc2NS(=O)(=O)c2cccc(C(=O)O)c2)n(C)c(=O)n3C)c1` [Example 253, 3-(N-(6-(3-(4-(dimethylamino)butoxy)-5-propoxyphenoxy)-1,3-dimethyl-2-oxo-2,3-dihydro-1H-benzo[d]imidazol-5-yl)sulfamoyl)benzoic acid], the IC50 was 10 to 100 nM.

Regarding `CCCOc1cc(OCCCC#N)cc(Oc2cc3c(cc2NS(=O)(=O)c2cn(C)c(C)n2)n(C)c(=O)n3C)c1` [Example 124, N-(6-(3-(3-cyanopropoxy)-5-propoxyphenoxy)-1,3-dimethyl-2-oxo-2,3-dihydro-1H-benzo[d]imidazol-5-yl)-1,2-dimethyl-1H-imidazole-4-sulfonamide], the half-maximal inhibitory concentration (IC50) was in the range of 10 to 100 nM.

`Cc1c(S(=O)(=O)Nc2cc3c(cc2Oc2cccc(OCC4CC4)c2)n(C)c(=O)n3C)cnn1C` [Example 102, N-(6-(3-(cyclopropylmethoxy)phenoxy)-1,3-dimethyl-2-oxo-2,3-dihydro-1H-benzo[d]imidazol-5-yl)-1,5-dimethyl-1H-pyrazole-4-sulfonamide]: the IC50 lay in the range of 10 to 100 nM.

For the compound `CCCOc1cc(OCCCCN)cc(Oc2cc3c(cc2NS(=O)(=O)c2ccccn2)n(C)c(=O)n3C)c1` [Example 198, N-(6-(3-(4-aminobutoxy)-5-propoxyphenoxy)-1,3-dimethyl-2-oxo-2,3-dihydro-1H-benzo[d]imidazol-5-yl)pyridine-2-sulfonamide], the IC50 was in the range of 10 to 100 nM.

For `COc1ccc(S(=O)(=O)Nc2cc3c(cc2Oc2cccc(OCc4ccccn4)c2)n(C)c(=O)n3C)cc1OC` [Example 29, N-(1,3-dimethyl-2-oxo-6-(3-(pyridin-2-ylmethoxy)phenoxy)-2,3-dihydro-1H-benzo[d]imidazol-5-yl)-3,4-dimethoxybenzenesulfonamide], the IC50 lay within 100 to 1000 nM.

Take `CCCOc1cc(OCCCCCCNC(C)=O)cc(Oc2cc3c(cc2NS(=O)(=O)c2cn(C)cn2)n(C)c(=O)n3C)c1` [Example 242, N-(6-(3-((1,3-dimethyl-6-(1-methyl-1H-imidazole-4-sulfonamido)-2-oxo-2,3-dihydro-1H-benzo[d]imidazol-5-yl)oxy)-5-propoxyphenoxy)hexyl)acetamide]: the IC50 lay in the range of 10 to 100 nM.

For `CC(C)COc1cc(F)cc(Oc2cc3c(cc2NS(=O)(=O)c2cn(C)cn2)n(C)c(=O)n3C)c1` [Example 224, N-(6-(3-fluoro-5-isobutoxyphenoxy)-1,3-dimethyl-2-oxo-2,3-dihydro-1H-benzo[d]imidazol-5-yl)-1-methyl-1H-imidazole-4-sulfonamide], the IC50 fell in the range of 10 to 100 nM.

On to `CCCOc1cc(OCCC)cc(Oc2cc3c(cc2NS(=O)(=O)c2cn(C)c(C)n2)n(C)c(=O)n3C)c1` [Example 90, N-(6-(3,5-dipropoxyphenoxy)-1,3-diemthyl-2-oxo-2,3-dihydro-1H-benzo[d]imidazol-5-yl)-1,2-dimethyl-1H-imidazole-4-sulfonamide], for which the IC50 was 10 to 100 nM.

Regarding `Cn1c(=O)n(C)c2cc(Oc3cccc(OCc4ccccc4)c3)c(NS(=O)(=O)c3ccsc3)cc21` [Example 21, N-(6-(3-(benzyloxy)phenoxy)-1,3-dimethyl-2-oxo-2,3-dihydro-1H-benzo[d]imidazol-5-yl)thiophene-3-sulfonamide], the IC50 is over 1000 nM.

As for `CCCOc1cccc(Oc2cc3c(cc2NS(=O)(=O)c2cc(OC)cc(OC)c2)n(C)c(=O)n3C)c1` [Example 169, N-(1,3-dimethyl-2-oxo-6-(3-propoxyphenoxy)-2,3-dihydro-1H-benzo[d]imidazol-5-yl)-3,5-dimethoxybenzenesulfonamide], the IC50 lay in the range of 100 to 1000 nM.

`Cn1cnc(S(=O)(=O)Nc2cc3c(cc2Oc2cccc(OCC(F)(F)F)c2)n(C)c(=O)n3C)c1` [Example 71, N-(1,3-dimethyl-2-oxo-6-(3-(2,2,2-trifluoroethoxy)phenoxy)-2,3-dihydro-1H-benzo[d]imidazol-5-yl)-1-methyl-1H-imidazole-4-sulfonamide]: the half-inhibitory concentration (IC50) fell in the range of 10 to 100 nM.

Consider `CCCOc1cc(OCCCCN)cc(Oc2cc3c(cc2NS(=O)(=O)c2cn(C)cn2)n(C)c(=O)n3C)c1` [Example 186, N-(6-(3-(4-aminobutoxy)-5-propoxyphenoxy)-1,3-dimethyl-2-oxo-2,3-dihydro-1H-benzo[d]imidazol-5-yl)-1-methyl-1H-imidazole-4-sulfonamide], for which the IC50 lay in the range of 1 to 10 nM.

For the compound `CCn1cnc(S(=O)(=O)Nc2cc3c(cc2Oc2cccc(OCc4ccccc4)c2)n(C)c(=O)n3C)c1` [Example 50, N-(6-(3-(benzyloxy)phenoxy)-1,3-dimethyl-2-oxo-2,3-dihydro-1H-benzo[d]imidazol-5-yl)-1-ethyl-1H-imidazole-4-sulfonamide], the IC50 was 100 to 1000 nM.

As for `CCCOc1cc(OCCCOC)cc(Oc2cc3c(cc2NS(=O)(=O)c2cccc4[nH]c(=O)c(=O)[nH]c24)n(C)c(=O)n3C)c1` [Example 176, N-(6-(3-(3-methoxypropoxy)-5-propoxyphenoxy)-1,3-dimethyl-2-oxo-2,3-dihydro-1H-benzo[d]imidazol-5-yl)-2,3-dioxo-1,2,3,4-tetrahydroquinoxaline-5-sulfonamide], the IC50 was 10 to 100 nM.

In the case of `CCCOc1cc(OCCCCCCN)cc(Oc2cc3c(cc2NS(=O)(=O)c2cn(C)c(C)n2)n(C)c(=O)n3C)c1` [Example 182, N-(6-(3-((6-aminohexyl)oxy)-5-propoxyphenoxy)-1,3-dimethyl-2-oxo-2,3-dihydro-1H-benzo[d]imidazol-5-yl)-1,2-dimethyl-1H-imidazole-4-sulfonamide], the IC50 lay in the range of 10 to 100 nM.

For `Cn1c(=O)n(C)c2cc(Oc3cccc(OCc4ccccc4)c3)c(NS(=O)(=O)c3ccccc3Br)cc21` [Example 37, N-(6-(3-(benzyloxy)phenoxy)-1,3-dimethyl-2-oxo-2,3-dihydro-1H-benzo[d]imidazol-5-yl)-2-bromobenzenesulfonamide], the half-maximal inhibitory concentration (IC50) is over 1000 nM.

Take `CCCOc1cc(OCCCOC)cc(Oc2cc3c(cc2NS(=O)(=O)c2ccccn2)n(C)c(=O)n3C)c1` [Example 158, N-(6-(3-(3-methoxypropoxy)-5-propoxyphenoxy)-1,3-dimethyl-2-oxo-2,3-dihydro-1H-benzo[d]imidazol-5-yl)pyridine-2-sulfonamide]: the IC50 lay in the range of 10 to 100 nM.

For the compound `CC(C)COc1cccc(Oc2cc3c(cc2NS(=O)(=O)C2CC2)n(C)c(=O)n3C)c1` [Example 59, N-(6-(3-isobutoxyphenoxy)-1,3-dimethyl-2-oxo-2,3-dihydro-1H-benzo[d]imidazol-5-yl)cyclopropanesulfonamide], the IC50 fell in the range of 100 to 1000 nM.

Consider `CCCOc1cccc(Oc2cc3c(cc2NS(=O)(=O)CCOC)n(C)c(=O)n3C)c1` [Example 85, N-(1,3-dimethyl-2-oxo-6-(3-propoxyphenoxy)-2,3-dihydro-1H-benzo[d]imidazol-5-yl)-2-methoxyethane-1-sulfonamide], for which the IC50 is 100 to 1000 nM.

Take `Cn1cnc(S(=O)(=O)Nc2cc3c(cc2Oc2cccc(OCCCCC(=O)O)c2)n(C)c(=O)n3C)c1` [Example 228]: the IC50 lay within 100 to 1000 nM.
